In patent publication US12668586B2, “AhR inhibitor, use thereof, and preparation method therefor” (CHONGQING PHARSCIN INNOBIO CO., LTD., priority 2021, dated 2026):

Biological target: T1, AhR (Homo sapiens, UniProt P35869)
T1 sequence (P35869 11-848): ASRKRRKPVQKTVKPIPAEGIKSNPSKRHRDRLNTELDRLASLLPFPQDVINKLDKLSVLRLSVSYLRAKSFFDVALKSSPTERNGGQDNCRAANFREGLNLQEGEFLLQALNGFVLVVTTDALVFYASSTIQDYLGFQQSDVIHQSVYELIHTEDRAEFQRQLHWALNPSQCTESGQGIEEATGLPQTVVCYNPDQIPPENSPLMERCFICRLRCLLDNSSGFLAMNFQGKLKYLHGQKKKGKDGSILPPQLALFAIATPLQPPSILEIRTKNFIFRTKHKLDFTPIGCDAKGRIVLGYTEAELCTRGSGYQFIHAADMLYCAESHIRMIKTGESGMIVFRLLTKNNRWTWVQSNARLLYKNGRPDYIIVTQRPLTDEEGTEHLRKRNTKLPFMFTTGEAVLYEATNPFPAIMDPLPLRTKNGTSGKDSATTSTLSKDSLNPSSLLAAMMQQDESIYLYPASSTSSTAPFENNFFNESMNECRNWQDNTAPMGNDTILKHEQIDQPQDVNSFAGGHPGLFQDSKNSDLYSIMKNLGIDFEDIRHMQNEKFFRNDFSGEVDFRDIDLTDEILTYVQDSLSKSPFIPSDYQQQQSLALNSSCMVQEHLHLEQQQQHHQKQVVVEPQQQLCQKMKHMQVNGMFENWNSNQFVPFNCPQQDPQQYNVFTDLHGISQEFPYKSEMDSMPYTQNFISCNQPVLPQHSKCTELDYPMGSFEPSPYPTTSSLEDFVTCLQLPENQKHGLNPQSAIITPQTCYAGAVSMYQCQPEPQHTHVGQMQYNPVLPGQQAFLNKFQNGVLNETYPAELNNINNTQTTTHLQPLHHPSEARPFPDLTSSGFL
Experiment: AhR inhibitory activity experiment, in vitro assay 1: HepG2-Lucia AhR cells, Lucia luciferase reporter (QUANTI-Luc)
Format: cell-based
Details: 24 hours incubation at 37° C., Lucia luciferase in supernatant, read-out: AhR inhibitory activity C50
Method: Test Example: AhR Inhibitory Activity Experiment
When QUANTI-Luc™ (InvivoGen Company) testing reagents are used, AhR gene signaling pathways can be studied by monitoring the activity of Lucia luciferase in the cell culture supernatant.
In Vitro Assay 1: Assay on Inhibitory Activity in Human Cell Lines
Adherent cell layers of HepG2-Lucia™ AhR cells in a logarithmic growth phase were washed with PBS, and then the cells were isolated with trypsin. The isolated cells were centrifuged at 1000 RPM for 5 minutes, the supernatant was removed, and the cells were re-suspended with a test medium by 1.25×10^5 cells/ml.
20,000 cells were added to each well of a 96-well plate, and the 96-well plate was placed in a CO2 incubator to incubate the cells at 37° C. for 24 hours in the absence (negative control) or presence of test compounds with gradient increasing concentrations (typical dilutions: 169 pmol/L, 0.5 nmol/L, 1.5 nmol/L; 4.6 nmol/L, 13.7 nmol/L, 41 nmol/L, 123 nmol/L, 370 nmol/L, 1.1 μmol/L, 3.3 μmol/L and 10 μmol/L, in triplicate).
The 20 μl/well cell supernatant was transferred to a black 96-well plate, a 50 μL/well QUANTI-Luc™ solution was added, and the activity of Lucia luciferase was measured on a multifunctional ELISA reader Spark 10 M (Tecan Company) through a QUANTI-Luc™ luciferase assay system.
Experimental results are shown in Table 1, wherein for IC50 values, “++++” represents IC50<0.05 μM; “+++” represents IC50 between 0.05 μM and 0.2 μM; “++” represents IC50 between 0.2 μM and 1.0 μM; and “+” represents IC50>1.0 μM.

`C[C@H](NC(=O)c1cc(-c2ccc(Cl)cc2)nc(-c2cnn(C)c2)n1)c1ccc2ncn(C)c2c1` [Compound 54, (S)-6-(4-chlorophenyl)-N-(1-(1-methyl-1H-benzo[d]imidazol-6-yl)ethyl)-2-(1-methyl-1H-pyrazol-4-yl)pyrimidine-4-formamide] and `C[C@H](NC(=O)c1cc(-c2ccc(Cl)cc2)nc(-c2cnn(C)c2)n1)c1ccc(C#N)c(F)c1` [Compound 57, (S)-6-(4-chlorophenyl)-N-(1-(3-fluoro-4-cyanophenyl)ethyl)-2-(1-methyl-1H-pyrazol-4-yl)pyrimidine-4-formamide] cannot be ordered by IC50: < 50 nM for the first, < 50 nM for the second.

`O=C(N[C@H]1CCc2ncccc21)c1cc(-c2ccc(C(F)(F)F)cc2)nc(-c2cccnc2)n1` [Compound 55, (S)-6-(4-trifluoromethylphenyl)-N-((S)-6,7-dihydro-5H-cyclopentano[B]pyridin-5-yl)-2-(pyridin-3-yl)pyrimidine-4-formamide] and `Cn1cc(-c2nc(C(=O)N[C@H]3CCc4ncccc43)cc(-c3ccc(C(F)(F)F)cc3)n2)cn1` [Compound 56, (S)-6-(4-trifluoromethylphenyl)-N-((S)-6,7-dihydro-5H-cyclopentano[B]pyridin-5-yl)-2-(1-methyl-1H-pyrazol-4-yl)pyrimidine-4-formamide] cannot be ordered by IC50: < 50 nM for the first, < 50 nM for the second.

First: C[C@H](NC(=O)c1cc(-c2ccc(C#N)cc2)nc(-c2cnn(C)c2)n1)c1ccnc(F)c1 [Compound 58, (S)-6-(4-cyanophenyl)-N-(1-(2-fluoro-4-pyridine)ethyl)-2-(1-methyl-1H-pyrazol-4-yl)pyrimidine-4-formamide]
Second: C[C@H](NC(=O)c1cc(-c2ccc(Cl)cc2)nc(-c2ccc(C#N)cc2)n1)c1ccnc(F)c1 [Compound 60, (S)-6-(4-chlorophenyl)-N-(1-(2-fluoro-4-pyridine)ethyl)-2-(p-cyanophenyl)pyrimidine-4-formamide]
The IC50 of the first is lower: 50 to 200 nM for the first, > 1000 nM for the second. The first is the more potent here.

Going from `Cc1noc(C)c1-c1nc(C(=O)N[C@@H](C)c2ccnc(F)c2)cc(-c2ccc(Cl)cc2)n1` [Compound 59, (S)-6-(4-chlorophenyl)-N-(1-(2-fluoro-4-pyridine)ethyl)-2-(3,5-dimethylisoxazol-4-yl)pyrimidine-4-formamide] to `O=C(N[C@H]1CCc2ncccc21)c1cc(-c2ccc(Cl)cc2)nc(-c2ccnc(F)c2)n1` [Compound 62, (S)-6-(4-chlorophenyl)-N-((S)-6,7-dihydro-5H-cyclopentano[B]pyridin-5-yl)-2-(2-fluoro-4-pyridine)pyrimidine-4-formamide], the IC50 falls from > 1000 nM to < 50 nM.

For `Cn1cc(-c2nc(C(=O)N[C@H]3CCc4ncccc43)cc(-c3ccc(OC(F)(F)F)cc3)n2)cn1` [Compound 61, (S)-6-(4-trifluoromethoxyphenyl)-N-((S)-6,7-dihydro-5H-cyclopentano[B]pyridin-5-yl)-2-(1-methyl-1H-pyrazol-4-yl)pyrimidine-4-formamide], the IC50 was > 1000 nM.
